# According to publication PMC314469, “Protein Interaction Networks by Proteome Peptide Scanning” (PLoS Biology, 2004):
# No end group written: not given here.
# Assays:
# [1] = molecular target: T1, Ysc84 SH3 domain (GST-fused) (Saccharomyces cerevisiae, UniProt P32793); assay: Surface plasmon resonance (BIAcoreX) dissociation constants of peptides, Ysc84 SH3 domain; type: binding; conditions: Figure 4A; SPR BIAcoreX, GST-SH3 coupled to CM5 chip, GST control; peptides in 10 mM HEPES, 150 mM NaCl, 3.4 mM EDTA, 0.005% P20, pH 7.4, 25°C; steady-state model; read-out: dissociation constant, SH3 DOMAINS YSC84
# T1 construct: Experiments were carried out on sensor chips with GST-fused SH3 domains and GST as a control; made in house
# T1 sequence (P32793 409-468 limits assumed): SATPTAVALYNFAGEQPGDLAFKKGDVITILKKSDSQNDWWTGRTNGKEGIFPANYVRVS
# Description: (§1) Figure 4 Measurement of Dissociation Constants and Correlation with SPOT Intensities (A) Dissociation constants were measured with a BIAcoreX instrument as described in the Materials and Methods. The experiments with the Abp1 SH3 domain were carried out in triplicate. (B) Normalized BLU intensities plotted as a function of the log of the dissociation constant.
# (§2) Surface plasmon resonance measurements were carried out with a BIAcoreX instrument (BIAcore, Uppsala, Sweden). Experiments were carried out on sensor chips with GST-fused SH3 domains and GST as a control. […] Interaction analysis was performed at 25°C with the peptides dissolved in 10 mM HEPES, 150 mM NaCl, 3.4 mM EDTA, and 0.005% surfactant P20 (pH 7.4), at 15 μl/min flow rate, using six to seven dilutions, ranging from 500 μM to 65 nM. Dissociation constant values were evaluated by applying the steady-state model using BIAcore evalution 3.1 software.
# [2] = molecular target: T2, Boi2 SH3 domain (GST-fused) (Saccharomyces cerevisiae, UniProt P39969); assay: Surface plasmon resonance (BIAcoreX) dissociation constants of peptides, Boi2 SH3 domain; type: binding; conditions: Figure 4A; SPR BIAcoreX, GST-SH3 coupled to CM5 chip, GST control; peptides in 10 mM HEPES, 150 mM NaCl, 3.4 mM EDTA, 0.005% P20, pH 7.4, 25°C; steady-state model; read-out: dissociation constant, SH3 DOMAINS BOI2
# T2 construct: Experiments were carried out on sensor chips with GST-fused SH3 domains and GST as a control; made in house
# T2 sequence (P39969 43-107 limits assumed): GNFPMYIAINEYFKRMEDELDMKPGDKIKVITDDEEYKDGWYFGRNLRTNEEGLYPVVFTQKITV
# Description: as §1, §2
# [3] = molecular target: T3, Yfr024c SH3 domain (GST-fused) (Saccharomyces cerevisiae, UniProt P43603); assay: Surface plasmon resonance (BIAcoreX) dissociation constants of peptides, Yfr024c SH3 domain; type: binding; conditions: Figure 4A; SPR BIAcoreX, GST-SH3 coupled to CM5 chip, GST control; peptides in 10 mM HEPES, 150 mM NaCl, 3.4 mM EDTA, 0.005% P20, pH 7.4, 25°C; steady-state model; read-out: dissociation constant, SH3 DOMAINS YFR024C
# T3 construct: Experiments were carried out on sensor chips with GST-fused SH3 domains and GST as a control; made in house
# T3 sequence (P43603 400-459 limits assumed): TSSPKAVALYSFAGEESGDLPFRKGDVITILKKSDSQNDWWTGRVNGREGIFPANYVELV
# Description: as §1, §2
# [4] = molecular target: T4, Rvs167 SH3 domain (GST-fused) (Saccharomyces cerevisiae, UniProt P39743); assay: Surface plasmon resonance (BIAcoreX) dissociation constants of peptides, Rvs167 SH3 domain; type: binding; conditions: Figure 4A; SPR BIAcoreX, GST-SH3 coupled to CM5 chip, GST control; peptides in 10 mM HEPES, 150 mM NaCl, 3.4 mM EDTA, 0.005% P20, pH 7.4, 25°C; steady-state model; read-out: dissociation constant, SH3 DOMAINS RVS167
# T4 construct: Experiments were carried out on sensor chips with GST-fused SH3 domains and GST as a control; made in house
# T4 sequence (P39743 421-482 limits assumed): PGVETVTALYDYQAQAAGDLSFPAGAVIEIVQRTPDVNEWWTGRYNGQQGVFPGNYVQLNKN
# Description: as §1, §2
# Myo5 SH3 domain = assay: SPOT analysis of cellulose-bound peptides (WISE), Myo5 SH3 domain (Dataset S4); type: binding, Saccharomyces cerevisiae; conditions: for The normalized value in BLU units: Myo5 SH3 domain
# [5] = SPOT analysis of cellulose-bound peptides probed with Myo5 SH3 domain, normalized value
# [6] = SPOT analysis of membrane-synthesized peptides probed with Myo5 SH3 domain, normalized value
# [7] = SPOT analysis of membrane-bound peptides, normalized value (see methods)
# [8] = SPOT analysis of cellulose-bound 14-mer yeast proteome peptides, normalized value, mean where the peptide was synthesized more than once
sequence,measurement,setting,value
NAPERAVPILPPRN [YBR108W NAPERAVPILPPRN],Kd,[1],13 µM
same,Kd,[2],> 100 µM
same,Kd,[3],4.2 µM
same,Kd,[4],56 µM
RGPPPLPPRANVQP [ACF2 RGPPPLPPRANVQP],Kd,[1],1.6 µM
same,Kd,[2],> 100 µM
same,Kd,[3],1.3 µM
SGPPLLPPRNTMKN [YJR083C SGPPLLPPRNTMKN],Kd,[1],5 µM
same,Kd,[2],> 100 µM
same,Kd,[3],3.5 µM
same,Kd,[4],16 µM
STPPTLPPRRIEDP [YMR192 STPPTLPPRRIEDP],Kd,[1],9.1 µM
same,Kd,[2],> 100 µM
same,Kd,[3],11 µM
same,Kd,[4],28 µM
RPKRRAPPPVPKKP [YIR003 RPKRRAPPPVPKKP],Kd,[4],13 µM
PQQNRPLPQLPNRN [LAS17 PQQNRPLPQLPNRN],Kd,[1],27 µM
same,Kd,[2],> 100 µM
same,Kd,[3],19 µM
same,Kd,[4],32 µM
RAVPILPPRNNVEP [YBR108W RAVPILPPRNNVEP],Kd,[1],13 µM
same,Kd,[2],> 100 µM
same,Kd,[3],14 µM
same,Kd,[4],39 µM
RPLPQLPNRNNRPV [LAS17 RPLPQLPNRNNRPV],Kd,[1],9.6 µM
same,Kd,[2],> 100 µM
same,Kd,[3],8.9 µM
same,Kd,[4],30 µM
GKDKSRPPRPPPKP [PK1 GKDKSRPPRPPPKP],Kd,[4],> 100 µM
GTTNRGPPPLPPRA [ACF2 GTTNRGPPPLPPRA],Kd,[1],1.1 µM
same,Kd,[2],> 100 µM
same,Kd,[3],1.7 µM
same,Kd,[4],6.3 µM
DIKTRSVPKIPSIE [DEM1 DIKTRSVPKIPSIE],Kd,[1],> 100 µM
same,Kd,[2],> 100 µM
same,Kd,[3],> 100 µM
same,Kd,[4],> 100 µM
SSPPPLPTRRDHIK [YPR171 SSPPPLPTRRDHIK],Kd,[1],3.3 µM
same,Kd,[2],> 100 µM
same,Kd,[3],4.8 µM
same,Kd,[4],16 µM
NIQPDLPPRKIMIP [YBR239C NIQPDLPPRKIMIP],Kd,[1],16 µM
same,Kd,[2],> 100 µM
same,Kd,[3],22 µM
same,Kd,[4],39 µM
FFTIWFIPLVPVFW,"The normalized value in BLU units (SPOT analysis, Myo5 SH3)",Myo5 SH3 domain; [5],396.7 BLU
PSSKKNKPNPPPGS,"The normalized value in BLU units (SPOT analysis, Myo5 SH3)",Myo5 SH3 domain; [6],106.9 BLU
KDEVKLHPPEPKDL,The normalized value in BLU units,Myo5 SH3 domain; [7],163.7 BLU
KLPDLKLPPSPVPS,The normalized value in BLU units,Myo5 SH3 domain; [8],231.2 BLU
PFLIKFTPKFPQSI,"The normalized value in BLU units (SPOT analysis, Myo5 SH3)",Myo5 SH3 domain; [6],974.5 BLU
SLDNFYNPLGPEDR,"The normalized value in BLU units (SPOT analysis, Myo5 SH3)",Myo5 SH3 domain; [5],142.7 BLU
ENTPRPNPTQPRKP,The normalized value in BLU units,Myo5 SH3 domain; [8],137.3 BLU
PFYTMPDPANPKYS,"The normalized value in BLU units (SPOT analysis, Myo5 SH3)",Myo5 SH3 domain; [5],145.1 BLU
PEDFLPPPPKPHFA,"The normalized value in BLU units (SPOT analysis, Myo5 SH3)",Myo5 SH3 domain; [5],125.8 BLU
KGVLKEYPMRPYGS,The normalized value in BLU units,Myo5 SH3 domain; [8],116.8 BLU
NTINKSNPQGPSDN,"The normalized value in BLU units (SPOT analysis, Myo5 SH3)",Myo5 SH3 domain; [6],76.2 BLU
EKELKEGPSSPASI,The normalized value in BLU units,Myo5 SH3 domain; [7],208.1 BLU
GWPVYNYPMQPTTE,"The normalized value in BLU units (SPOT analysis, Myo5 SH3)",Myo5 SH3 domain; [5],167.9 BLU
KDKARGNPEKPPYW,The normalized value in BLU units,Myo5 SH3 domain; [7],59.9 BLU
VLFNLDHPMVPENL,"The normalized value in BLU units (SPOT analysis, Myo5 SH3)",Myo5 SH3 domain; [5],220.3 BLU
KIVERGPPYPPDLR,The normalized value in BLU units,Myo5 SH3 domain; [7],137.7 BLU
FPFYLSFPFCPSFP,"The normalized value in BLU units (SPOT analysis, Myo5 SH3)",Myo5 SH3 domain; [5],759.9 BLU
NNLKKRPPTAPQRK,The normalized value in BLU units,Myo5 SH3 domain; [7],418.9 BLU
KFPLMDKPSIPTLR,"The normalized value in BLU units (SPOT analysis, Myo5 SH3)",Myo5 SH3 domain; [5],431.6 BLU
HSTPKPLPPVPALS,"The normalized value in BLU units (SPOT analysis, Myo5 SH3)",Myo5 SH3 domain; [6],143.5 BLU
LDVRRIYPKGPLLV,"The normalized value in BLU units (SPOT analysis, Myo5 SH3)",Myo5 SH3 domain; [6],231.6 BLU
TEEILPTPVQPGGH,The normalized value in BLU units,Myo5 SH3 domain; [8],121.0 BLU
KPPSYPSPVQPPQS,"The normalized value in BLU units (SPOT analysis, Myo5 SH3)",Myo5 SH3 domain; [5],16459.5 BLU
TGGGRIVPGVPPGA,"The normalized value in BLU units (SPOT analysis, Myo5 SH3)",Myo5 SH3 domain; [6],118.4 BLU
IPLPHQPPPLPIYS,"The normalized value in BLU units (SPOT analysis, Myo5 SH3)",Myo5 SH3 domain; [5],53588.9 BLU
LALLMTDPDAPSRT,The normalized value in BLU units,Myo5 SH3 domain; [8],177.5 BLU
DKFIKLIPMRPVLI,The normalized value in BLU units,Myo5 SH3 domain; [7],252.9 BLU
HAWDMRSPHRPFYS,"The normalized value in BLU units (SPOT analysis, Myo5 SH3)",Myo5 SH3 domain; [5],822.1 BLU
QPQAYHLPGNPYST,"The normalized value in BLU units (SPOT analysis, Myo5 SH3)",Myo5 SH3 domain; [5],187.4 BLU
AADSHAIPVDPPSY,"The normalized value in BLU units (SPOT analysis, Myo5 SH3)",Myo5 SH3 domain; [5],37.9 BLU
EAFKLPKPWSPNSH,The normalized value in BLU units,Myo5 SH3 domain; [8],141.0 BLU
HEASKCFPKAPQAS,The normalized value in BLU units,Myo5 SH3 domain; [7],288.6 BLU
LIDFKDYPDVPKVP,"The normalized value in BLU units (SPOT analysis, Myo5 SH3)",Myo5 SH3 domain; [6],153.6 BLU
TLNDRQIPLSPDQM,The normalized value in BLU units,Myo5 SH3 domain; [7],73.6 BLU
RRIRKEHPGEPNVI,The normalized value in BLU units,Myo5 SH3 domain; [7],308.3 BLU
VLKTLAFPINPSDI,"The normalized value in BLU units (SPOT analysis, Myo5 SH3)",Myo5 SH3 domain; [5],156.0 BLU
RGWQRFLPTGPIAH,"The normalized value in BLU units (SPOT analysis, Myo5 SH3)",Myo5 SH3 domain; [6],802.1 BLU
PLRERIIPILPANS,The normalized value in BLU units,Myo5 SH3 domain; [8],175.1 BLU
LITDKEYPVRPAYT,"The normalized value in BLU units (SPOT analysis, Myo5 SH3)",Myo5 SH3 domain; [6],136.3 BLU
PLAPLPPPPPPSVA,"The normalized value in BLU units (SPOT analysis, Myo5 SH3)",Myo5 SH3 domain; [5],4747.6 BLU
WLDEKRIPSTPVDY,The normalized value in BLU units,Myo5 SH3 domain; [7],240.0 BLU
VPAILMTPICPRSL,"The normalized value in BLU units (SPOT analysis, Myo5 SH3)",Myo5 SH3 domain; [5],138.1 BLU
TMKNKPKPTPPSPP,The normalized value in BLU units,Myo5 SH3 domain; [7],909.8 BLU
GIMIKAKPSSPYTY,"The normalized value in BLU units (SPOT analysis, Myo5 SH3)",Myo5 SH3 domain; [6],235.9 BLU
PPSIRKQPIAPDVL,"The normalized value in BLU units (SPOT analysis, Myo5 SH3)",Myo5 SH3 domain; [6],150.3 BLU
GKDHRLAPNGPGMH,"The normalized value in BLU units (SPOT analysis, Myo5 SH3)",Myo5 SH3 domain; [6],217.5 BLU
AKTNKNVPVLPTPG,"The normalized value in BLU units (SPOT analysis, Myo5 SH3)",Myo5 SH3 domain; [6],130.3 BLU
